Assay results as given in US10316019B2, “Method for preparing the anhydrous crystalline form of isoniazid-derived hydrazone, thus produced crystalline polymorph of the anyhydrous form, use thereof for the treatment of alzheimer's disease, parkinsonism and other neurodegenerative disorders, and pharamceutical composition” (FACULDADDES CATÓLICAS, Associação sem fins Lucrativos, …, priority 2014, dated 2019).

Experiments:
[1] = test system: α-synuclein and Cu(II)/Cu(I); assay: 1H NMR competition for Cu(II)/Cu(I) bound to α-synuclein; format: binding
[2] = test system: β-amyloid peptide and Zn(II); assay: 2D 1H×15N HSQC NMR competition for Zn(II) bound to β-amyloid peptide; format: binding
Wistar male rats = assay: Acute toxicity test, intraperitoneal injection; format: in vivo; conditions: i.p. up to 300 mg kg^−1, Wistar male rats

## O=C(N/N=C/c1ccc2cccc(O)c2n1)c1ccncc1 [INHHQ, 8-hydroxyquinoline-2-carboxaldehyde isonicotinoyl hydrazone]
[1]; 1D and 2D NMR
  Direct interaction with α-synuclein: does not interact directly
[1]; INHHQ 4 eq. added to α-synuclein + Cu(II)/Cu(I) 1 eq.
  Effect on α-synuclein methionine 1H NMR signals in the presence of copper (Cu-α-synuclein interaction): recovery of the original methionine signals' position
[2]; 1D and 2D NMR
  Direct interaction with β-amyloid peptide: does not interact directly
[2]; INHHQ 4 eq. added to β-amyloid peptide + Zn(II) 1 eq.
  Effect on Aβ HSQC signals in the presence of Zn(II) (Zn(II)-Aβ interaction): partial intensity recovery for all Aβ signals
Wistar male rats; 72 h
  Behavioral changes: no behavioral changes
Wistar male rats; after sacrifice
  Macroscopic organ abnormalities at dissection: no macroscopic abnormalities
